Assays:
Settings in all cases: scale 0 to 100
blackgrass = test: Test D preemergence test; type: in vivo, Alopecurus myosuroides
Text: (§1) Seeds of plant species selected from annual bluegrass (Poa annua), blackgrass (Alopecurus myosuroides), downy bromegrass (Bromus tectorum), field violet (Viola arvensis), green foxtail (Setaria viridis), Italian ryegrass (Lolium multiflorum), littleseed canarygrass (Phalaris minor), spring wheat (Triticum aestivum), wild oat (Avena fatua), […]), winter barley (Hordeum vulgare), and winter wheat (Triticum aestivum) were planted and treated preemergence with test chemicals formulated in a non-phytotoxic solvent mixture which included a surfactant. […] A dash (-) response means no test result.

Italian ryegrass = test: Test D preemergence test; type: in vivo, Lolium multiflorum
Text: as §1

spring wheat = test: Test D preemergence test; type: in vivo, Triticum aestivum
Procedure, shortened: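 Test chemicals, in a non-phytotoxic solvent blend with surfactant, were applied preemergence to planted seeds; where no result was obtained, a dash is shown.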

cotton = test: Test G preemergence test; type: in vivo, Gossypium hirsutum
fall panicum = test: Test G preemergence test; type: in vivo, Panicum dichotomiflorum
itchgrass = test: Test G preemergence test; type: in vivo, Rottboellia cochinchinensis
sorghum = test: Test G preemergence test; type: in vivo, Sorghum vulgare
yellow foxtail = test: Test G preemergence test; type: in vivo, Pennisetum glaucum
yellow nutsedge = test: Test G preemergence test; type: in vivo, Cyperus esculentus

| Structure (SMILES) | Plant response rating, Blackgrass (blackgrass; 31 g ai/ha) | Plant response rating, Blackgrass (blackgrass; 62 g ai/ha) | Plant response rating, Blackgrass (blackgrass; 250 g ai/ha) | Plant response rating, Ryegrass, Italian (Italian ryegrass; 31 g ai/ha) | Plant response rating, Ryegrass, Italian (Italian ryegrass; 62 g ai/ha) | Plant response rating, Ryegrass, Italian (Italian ryegrass; 125 g ai/ha) | Plant response rating, Ryegrass, Italian (Italian ryegrass; 250 g ai/ha) | Plant response rating, Wheat, Spring (spring wheat; 31 g ai/ha) | Plant response rating, Wheat, Spring (spring wheat; 62 g ai/ha) | Plant response rating, Wheat, Spring (spring wheat; 125 g ai/ha) | Plant response rating, Wheat, Spring (spring wheat; 250 g ai/ha) | Plant response rating, Cotton (cotton; 31 g ai/ha) | Plant response rating, Cotton (cotton; 62 g ai/ha) | Plant response rating, Cotton (cotton; 125 g ai/ha) | Plant response rating, Cotton (cotton; 250 g ai/ha) | Plant response rating, Fall Panicum (fall panicum; 31 g ai/ha) | Plant response rating, Fall Panicum (fall panicum; 62 g ai/ha) | Plant response rating, Fall Panicum (fall panicum; 125 g ai/ha) | Plant response rating, Fall Panicum (fall panicum; 250 g ai/ha) | Plant response rating, Itchgrass (itchgrass; 31 g ai/ha) | further results |
| --- | --- | --- | --- | --- | --- | --- | --- | --- | --- | --- | --- | --- | --- | --- | --- | --- | --- | --- | --- | --- | --- |
| Cc1cc[n+]([O-])c(S(=O)(=O)C(C)c2c(C(F)(F)F)nn(C)c2Cl)c1 (racemic) [Compound 14] | 0 | 40 | 95 | 0 | 0 | 0 | 100 | 0 | 0 | 15 | 20 | 0 | 0 | 0 | 0 | 15 | 50 | 70 | 100 | 0 | Plant response rating, Blackgrass (blackgrass; 125 g ai/ha): 40; Plant response rating, Itchgrass (itchgrass; 62 g ai/ha): 0; Plant response rating, Itchgrass (itchgrass; 125 g ai/ha): 15; Plant response rating, Itchgrass (itchgrass; 250 g ai/ha): 20; Plant response rating, Sorghum (sorghum; 31 g ai/ha): 0; Plant response rating, Sorghum (sorghum; 62 g ai/ha): 0; Plant response rating, Sorghum (sorghum; 125 g ai/ha): 20; Plant response rating, Sorghum (sorghum; 250 g ai/ha): 65; Plant response rating, Foxtail, Yellow (yellow foxtail; 31 g ai/ha): 0; Plant response rating, Foxtail, Yellow (yellow foxtail; 62 g ai/ha): 0; Plant response rating, Foxtail, Yellow (yellow foxtail; 125 g ai/ha): 95; Plant response rating, Foxtail, Yellow (yellow foxtail; 250 g ai/ha): 95; Plant response rating, Nutsedge, Yellow (yellow nutsedge; 31 g ai/ha): 0; Plant response rating, Nutsedge, Yellow (yellow nutsedge; 62 g ai/ha): 0; Plant response rating, Nutsedge, Yellow (yellow nutsedge; 125 g ai/ha): 0; Plant response rating, Nutsedge, Yellow (yellow nutsedge; 250 g ai/ha): 65 |
| Cc1cc[n+]([O-])c(S(=O)(=O)C(Cl)c2c(C(F)(F)F)nn(C)c2Cl)c1 (racemic) [Compound 22] | 40 | 40 | 95 | 0 | 30 | 35 | 55 | 0 | 0 | 0 | 15 | 0 | 0 | 0 | 0 | 85 | 85 | 90 | 100 | 0 | Plant response rating, Itchgrass (itchgrass; 62 g ai/ha): 15; Plant response rating, Itchgrass (itchgrass; 125 g ai/ha): 20; Plant response rating, Itchgrass (itchgrass; 250 g ai/ha): 40; Plant response rating, Sorghum (sorghum; 31 g ai/ha): 0; Plant response rating, Sorghum (sorghum; 62 g ai/ha): 0; Plant response rating, Sorghum (sorghum; 125 g ai/ha): 0; Plant response rating, Sorghum (sorghum; 250 g ai/ha): 95; Plant response rating, Foxtail, Yellow (yellow foxtail; 31 g ai/ha): 0; Plant response rating, Foxtail, Yellow (yellow foxtail; 62 g ai/ha): 35; Plant response rating, Foxtail, Yellow (yellow foxtail; 125 g ai/ha): 100; Plant response rating, Foxtail, Yellow (yellow foxtail; 250 g ai/ha): 100; Plant response rating, Nutsedge, Yellow (yellow nutsedge; 31 g ai/ha): 0; Plant response rating, Nutsedge, Yellow (yellow nutsedge; 62 g ai/ha): 0; Plant response rating, Nutsedge, Yellow (yellow nutsedge; 125 g ai/ha): 0; Plant response rating, Nutsedge, Yellow (yellow nutsedge; 250 g ai/ha): 45 |
| Cn1nc(C(F)(F)F)c(CS(=O)(=O)c2ccc(Cl)c[n+]2[O-])c1OC(F)F [Compound 7] | 0 | 0 | 80 | 0 | 0 | 0 | 20 | 0 | 0 | 0 | 0 | 0 | 0 | 0 | 0 | 0 | 80 | 90 | 100 | 0 | Plant response rating, Blackgrass (blackgrass; 125 g ai/ha): 0; Plant response rating, Itchgrass (itchgrass; 62 g ai/ha): 0; Plant response rating, Itchgrass (itchgrass; 125 g ai/ha): 25; Plant response rating, Itchgrass (itchgrass; 250 g ai/ha): 25; Plant response rating, Sorghum (sorghum; 31 g ai/ha): 0; Plant response rating, Sorghum (sorghum; 62 g ai/ha): 0; Plant response rating, Sorghum (sorghum; 125 g ai/ha): 0; Plant response rating, Sorghum (sorghum; 250 g ai/ha): 20; Plant response rating, Foxtail, Yellow (yellow foxtail; 31 g ai/ha): 0; Plant response rating, Foxtail, Yellow (yellow foxtail; 62 g ai/ha): 50; Plant response rating, Foxtail, Yellow (yellow foxtail; 125 g ai/ha): 95; Plant response rating, Foxtail, Yellow (yellow foxtail; 250 g ai/ha): 100; Plant response rating, Nutsedge, Yellow (yellow nutsedge; 31 g ai/ha): 0; Plant response rating, Nutsedge, Yellow (yellow nutsedge; 62 g ai/ha): 0; Plant response rating, Nutsedge, Yellow (yellow nutsedge; 125 g ai/ha): 0; Plant response rating, Nutsedge, Yellow (yellow nutsedge; 250 g ai/ha): 0 |

Reference: patent US20100298141A1, “SUBSTITUTED PYRIDINE N-OXIDE HERBICIDES” (E. I. DU PONT DE NEMOURS AND COMPANY, priority 2007, published 2010)
